# Target: T1, human calcium-sensing receptor (CaSR) (Homo sapiens, UniProt P41180)
# T1 construct: expressed in transfected cells
# T1 sequence (P41180 20-1078): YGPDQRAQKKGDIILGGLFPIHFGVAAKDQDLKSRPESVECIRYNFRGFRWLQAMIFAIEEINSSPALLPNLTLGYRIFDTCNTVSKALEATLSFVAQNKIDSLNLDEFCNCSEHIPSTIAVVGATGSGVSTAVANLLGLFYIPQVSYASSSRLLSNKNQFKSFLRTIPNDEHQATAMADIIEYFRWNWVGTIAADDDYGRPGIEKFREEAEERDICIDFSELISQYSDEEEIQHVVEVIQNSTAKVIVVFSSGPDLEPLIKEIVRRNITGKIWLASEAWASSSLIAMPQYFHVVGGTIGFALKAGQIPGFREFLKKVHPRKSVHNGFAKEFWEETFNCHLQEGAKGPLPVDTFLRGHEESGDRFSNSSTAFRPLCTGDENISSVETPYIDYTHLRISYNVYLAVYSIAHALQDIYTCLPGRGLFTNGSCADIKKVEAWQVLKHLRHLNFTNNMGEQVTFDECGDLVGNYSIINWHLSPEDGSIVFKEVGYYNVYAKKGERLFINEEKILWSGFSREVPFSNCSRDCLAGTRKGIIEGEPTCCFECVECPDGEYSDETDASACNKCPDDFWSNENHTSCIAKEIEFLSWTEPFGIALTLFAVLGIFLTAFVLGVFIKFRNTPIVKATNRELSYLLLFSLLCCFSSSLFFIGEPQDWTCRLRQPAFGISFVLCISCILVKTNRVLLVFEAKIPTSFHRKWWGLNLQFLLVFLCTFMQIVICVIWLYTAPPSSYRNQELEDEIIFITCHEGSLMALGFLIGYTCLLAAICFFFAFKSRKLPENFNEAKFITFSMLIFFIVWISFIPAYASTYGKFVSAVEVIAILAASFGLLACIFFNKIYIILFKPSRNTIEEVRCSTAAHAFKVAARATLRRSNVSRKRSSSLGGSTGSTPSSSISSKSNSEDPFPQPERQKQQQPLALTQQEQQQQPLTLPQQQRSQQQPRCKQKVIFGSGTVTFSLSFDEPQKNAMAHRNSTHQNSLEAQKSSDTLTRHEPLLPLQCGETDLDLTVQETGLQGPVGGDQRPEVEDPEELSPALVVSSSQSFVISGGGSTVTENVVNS
# Test: Inhibitory activity on calcium-sensing receptor (CaSR), intracellular calcium increase as indicator (FLIPR, CHO/hCaSR)
# Assay type: cell-based
# Conditions: CHO cells stably expressing human CaSR; inhibition of intracellular Ca increase induced by extracellular CaCl2
# Description: Evaluation of inhibitory activity on calcium-sensing receptor (CaSR) using intracellular calcium increase as an indicator
# The preparation which is prepared by adding CHO/hCaSR to F12 medium (manufactured by Invitrogen) containing 10% fetal bovine serum to have 2×10^5 cells/mL was applied to a 384-well in an amount of 50 μL/well, and then incubated overnight in a CO2 incubator. The culture supernatant was completely removed, the assay buffer (20 mM HEPES, HBSS (Ca and Mg free) containing 2.5 mM probenecid, pH 7.4) containing Calcium 3 (manufactured by Molecular Devices), i.e., a fluorescent intracellular calcium indicator, was added thereto in an amount of 25 μL/well, and the mixture was maintained for 1 hour in a CO2 incubator. Meanwhile, Calcium 3 was prepared according to the protocol enclosed in FLIPR Calcium 3 Assay Kit (manufactured by Molecular Devices). After maintaining it for 1 hour, a solution in which the test compound is prepared to have 2.1 to 20,000 nM (final concentration of 1.05 to 10,000 nM) by an assay buffer was added thereto in an amount of 25 μL/well, and maintained for 15 minutes in a CO2 incubator. Then, the CaCl2 solution prepared to have […] by using the assay buffer was added in an amount of 25 μL/well, and the resulting intracellular Ca increase (i.e., fluorescence intensity) was measured over time using a fluorescence imaging plate reader (FLIPR, manufactured by Molecular Devices). From the data obtained, the difference between the fluorescence intensity before the addition of CaCl2 solution and the maximum fluorescence intensity after the addition of CaCl2 solution was calculated, and the 50% inhibition concentration (IC50) of the test compound was obtained.
row,Structure (SMILES),IC50 [µM]
1,CC[C@@H](OC[C@H](O)CN1CCC[C@H]1Cc1ccc(C)c(F)c1)c1ccc(C)cc1CCC(=O)O [Example 45],≤ 3.39
2,Cc1ccc(C[C@@H]2CCCN2C[C@@H](O)CO[C@H](C)c2cc(Cl)ccc2CCC(=O)O)cc1F [Example 79],≤ 3.35
3,CC[C@@H](OC[C@H](O)CN1CCC[C@H]1Cc1ccc(Cl)c(Cl)c1)c1cc(F)c(F)cc1CCC(=O)O [Example 117],≤ 3.02
4,CCC[C@@H](OC[C@H](O)CN1CCC[C@H]1Cc1ccc(C)c(F)c1)c1ccc(Cl)cc1CCC(=O)O [Example 124],≤ 3.16
5,CC[C@@H](OC[C@H](O)CN1CCC[C@H]1Cc1ccc(Cl)c(F)c1)c1cccc(F)c1CCC(=O)O [Example 139],≤ 3.23
6,Cc1ccc(C[C@@H]2CCCN2C[C@@H](O)CO[C@H](C)c2cc(F)c(F)cc2CCCCC(=O)O)cc1F [Example 30],≤ 3.15
7,CC[C@@H](OC[C@H](O)CN1CCC[C@H]1Cc1ccc(Cl)c(Cl)c1)c1cc(F)ccc1CCC(=O)O [Example 104],≤ 3.12
8,CCc1cc(C[C@@H]2CCCN2C[C@@H](O)CO[C@H](C)c2cccc(OC)c2CCC(=O)O)ccc1Cl [Example 165],≤ 3.17
9,CC[C@@H](OC[C@H](O)CN1CCC[C@H]1Cc1ccc(C)c(Cl)c1)c1cc(F)cc(F)c1CCC(=O)O [Example 140],≤ 3.14
10,CC[C@@H](OC[C@H](O)CN1CCC[C@H]1Cc1ccc(C)c(Cl)c1)c1ccc(C)cc1CCC(=O)O [Example 136],≤ 3.28
11,CC[C@@H](OC[C@H](O)CN1CCC[C@H]1Cc1ccc(Cl)c(Cl)c1)c1ccc(Cl)cc1CCC(=O)O [Example 100],≤ 3.03
12,CC[C@@H](OC[C@H](O)CN1CCC[C@H]1Cc1ccc(C)c(F)c1)c1cccc(F)c1CCC(=O)O [Example 44],≤ 3.36
13,Cc1ccc(C[C@@H]2CCCN2C[C@@H](O)CO[C@H](C)c2cccc(C)c2CCCCC(=O)O)cc1F [Example 57],≤ 3.29
14,Cc1ccc(C[C@@H]2CCCN2C[C@@H](O)CO[C@H](C)c2cc(F)c(F)cc2CCC(=O)O)cc1Cl [Example 176],≤ 3.23
15,"Cc1ccc(C[C@@H]2CCCN2C[C@@H](O)CO[C@H](C)c2ccccc2CCc2nn[nH]n2)cc1F [Example 178, (2R)-1-[(2S)-2-(3-Fluoro-4-methylbenzyl)pyrrolidin-1-yl]-3-[(1R)-1-{2-[2-(2H-tetrazol-5-yl)ethyl]phenyl}ethoxy]propan-2-ol]",≤ 3.12
16,Cc1ccc(C[C@@H]2CCCN2C[C@@H](O)CO[C@H](C)c2cc(F)ccc2CCCCC(=O)O)cc1F [Example 55],≤ 3.27
17,CC[C@@H](OC[C@H](O)CN1CCC[C@H]1Cc1ccc(C)c(Cl)c1)c1cccc(OC)c1CCC(=O)O [Example 171],≤ 3.17
18,"Cc1ccc(C[C@@H]2CCCN2C[C@@H](O)CO[C@H](C)c2cccc(C)c2CCC(=O)O)cc1F [Example 3, 3-{2-[(1R)-1-({(2R)-3-[(2S)-2-(3-Fluoro-4-methylbenzyl)pyrrolidin-1-yl]-2-hydroxypropyl}oxy)ethyl]-6-methylphenyl}propanoic acid]",≤ 3.5
19,"Cc1ccc(C[C@@H]2CCCN2C[C@@H](O)CO[C@H](C)c2ccccc2CCC(=O)O)cc1F [Example 2, 3-{2-[(1R)-1-({(2R)-3-[(2S)-2-(3-Fluoro-4-methylbenzyl)pyrrolidin-1-yl]-2-hydroxypropyl}oxy)ethyl]phenyl}propanoic acid]",≤ 3.61
20,Cc1ccc(C[C@@H]2CCCN2C[C@@H](O)CO[C@H](C)c2cc(F)c(C)cc2CCCCC(=O)O)cc1F [Example 23],≤ 3.18
21,Cc1ccc(C[C@@H]2CCCN2C[C@@H](O)CO[C@H](C)c2ccc(Cl)cc2CCCCC(=O)O)cc1F [Example 81],≤ 3.16
22,CCc1cc(C[C@@H]2CCCN2C[C@@H](O)CO[C@H](C)c2cccc(Cl)c2CCC(=O)O)ccc1Cl [Example 152],≤ 3.15
23,Cc1ccc(C[C@@H]2CCCN2C[C@@H](O)CO[C@H](C)c2cccc(OC(F)F)c2CCC(=O)O)cc1F [Example 75],≤ 3.14

row,Structure (SMILES),IC50 [µM]
1,COc1cccc([C@@H](C)OC[C@H](O)CN2CCC[C@H]2Cc2ccc(C)c(F)c2)c1CCCCC(=O)O [Example 42],≤ 3.19
2,Cc1ccc(C[C@@H]2CCCN2C[C@@H](O)CO[C@H](C)c2cc(F)c(C)cc2CCC(=O)O)cc1F [Example 22],≤ 3.36
3,CC[C@@H](OC[C@H](O)CN1CCC[C@H]1Cc1ccc(C)c(Cl)c1)c1cc(F)ccc1CCC(=O)O [Example 134],≤ 3.25
4,Cc1cc(CCC(=O)O)c([C@@H](C)OC[C@H](O)CN2CCC[C@H]2Cc2ccc(Cl)c(Cl)c2)cc1F [Example 175],≤ 3.12
5,CCc1cc(C[C@@H]2CCCN2C[C@@H](O)CO[C@H](C)c2ccccc2CCC(=O)O)ccc1Cl [Example 89],≤ 3.38
6,CC[C@@H](OC[C@H](O)CN1CCC[C@H]1Cc1ccc(C)c(F)c1)c1cc(F)c(C)cc1CCC(=O)O [Example 69],≤ 3.27
7,C[C@@H](OC[C@H](O)CN1CCC[C@H]1Cc1ccc(Cl)c(F)c1)c1ccc(Cl)cc1CCC(=O)O [Example 131],≤ 3.21
8,CC[C@@H](OC[C@H](O)CN1CCC[C@H]1Cc1ccc(C)c(F)c1)c1cccc(C)c1CCC(=O)O [Example 47],≤ 3.39
9,Cc1cc(CCC(=O)O)c([C@@H](C)OC[C@H](O)CN2CCC[C@H]2Cc2ccc(C)c(Cl)c2)cc1F [Example 174],≤ 3.25
10,CCc1cc(C[C@@H]2CCCN2C[C@@H](O)CO[C@H](C)c2cc(F)c(C)cc2CCC(=O)O)ccc1Cl [Example 146],≤ 3.16
11,CCc1cc(C[C@@H]2CCCN2C[C@@H](O)CO[C@H](C)c2cccc(C)c2CCC(=O)O)ccc1Cl [Example 163],≤ 3.28
12,CC[C@@H](OC[C@H](O)CN1CCC[C@H]1Cc1ccc(Cl)c(Cl)c1)c1ccc(C)cc1CCC(=O)O [Example 102],≤ 3.15
13,Cc1ccc(C[C@@H]2CCCN2C[C@@H](O)COC(C)c2c(F)cccc2CCC(=O)O)cc1F (stereo partly drawn) [Example 31],≤ 3.47
14,CC[C@@H](OC[C@H](O)CN1CCC[C@H]1Cc1ccc(C)c(F)c1)c1ccc(Cl)cc1CCC(=O)O [Example 95],≤ 3.25
15,CCc1cc(C[C@@H]2CCCN2C[C@@H](O)CO[C@H](CC)c2cccc(F)c2CCC(=O)O)ccc1Cl [Example 109],≤ 3.16
16,Cc1ccc(C[C@@H]2C[C@@H](O)CN2C[C@@H](O)CO[C@H](C)c2ccccc2CCC(=O)O)cc1F [Example 49],≤ 3.48
17,C[C@@H](OC[C@H](O)CN1CCC[C@H]1Cc1ccc(Cl)c(Cl)c1)c1cccc(Cl)c1CCC(=O)O [Example 151],≤ 3.11
18,CCc1cc(C[C@@H]2CCCN2C[C@@H](O)CO[C@H](C)c2ccc(C)cc2CCC(=O)O)ccc1Cl [Example 98],≤ 3.28
19,"Cc1ccc(C[C@@H]2CCCN2C[C@@H](O)CO[C@H](C)c2cc(F)ccc2CCC(=O)O)cc1F [Example 8, 3-{4-Fluoro-2-[(1R)-1-({(2R)-3-[(2S)-2-(3-fluoro-4-methylbenzyl)pyrrolidin-1-yl]-2-hydroxypropyl}oxy)ethyl]phenyl}propanoic acid]",≤ 3.47
20,COc1cc(F)cc([C@@H](C)OC[C@H](O)CN2CCC[C@H]2Cc2ccc(C)c(F)c2)c1CCC(=O)O [Example 33],≤ 3.25
21,CCc1cc(C[C@@H]2CCCN2C[C@@H](O)CO[C@H](CC)c2cccc(Cl)c2CCC(=O)O)ccc1Cl [Example 114],≤ 3.06
22,CC[C@@H](OC[C@H](O)CN1CCC[C@H]1Cc1ccc(Cl)c(F)c1)c1cc(F)cc(F)c1CCC(=O)O [Example 141],≤ 3.11
